This passage reports IC50 and inhibition results from patent US10815210B2, “Benzocyclobutane derivatives useful as dual SGLT1 / SGLT2 modulators” (Janssen Pharmaceutica NV, priority 2016, dated 2020).

The target in one experiment is T1, human SGLT2 (Homo sapiens, UniProt P31639).
T1 construct: expressed in transfected cells; host or cells: CHO-K1
T1 sequence (P31639 1-672): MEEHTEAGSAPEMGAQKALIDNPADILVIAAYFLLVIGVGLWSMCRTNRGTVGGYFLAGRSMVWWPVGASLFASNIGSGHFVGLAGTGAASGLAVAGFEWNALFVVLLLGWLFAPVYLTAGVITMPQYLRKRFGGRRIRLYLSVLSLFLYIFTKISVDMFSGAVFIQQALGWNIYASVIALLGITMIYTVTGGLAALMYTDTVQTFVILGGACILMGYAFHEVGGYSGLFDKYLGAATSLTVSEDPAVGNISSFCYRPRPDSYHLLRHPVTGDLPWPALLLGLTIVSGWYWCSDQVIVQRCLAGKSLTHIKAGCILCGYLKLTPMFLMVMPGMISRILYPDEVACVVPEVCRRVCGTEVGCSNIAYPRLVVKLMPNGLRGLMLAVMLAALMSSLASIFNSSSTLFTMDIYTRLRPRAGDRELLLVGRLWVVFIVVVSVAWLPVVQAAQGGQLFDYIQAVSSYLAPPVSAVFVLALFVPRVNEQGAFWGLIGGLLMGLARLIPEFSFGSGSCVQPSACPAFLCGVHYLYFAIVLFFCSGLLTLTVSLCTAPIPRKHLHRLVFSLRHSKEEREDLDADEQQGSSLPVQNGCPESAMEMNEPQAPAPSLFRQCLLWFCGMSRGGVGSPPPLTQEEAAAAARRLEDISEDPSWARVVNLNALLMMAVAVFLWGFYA
Description: SGLT2 assay: Na-dependent 14C-AMG uptake in CHO-K1 cells stably expressing human SGLT2. It is filed as cell-based. To be noted: for IC50: 500 μM AMG, 2 hours at 37° C. As to the method:
(§1) SGLT1 and SGLT2 were cloned in form of cDNA from human small intestine (Genbank M24847), and from human kidney (Genbank M95549), respectively. Subsequently, each full cDNA was subcloned into pcDNA with each construct's integrity verified through follow-on sequencing. To generate CHO-K1 cells that stably express human SGLT1 or human SGLT2, CHO-K1 cells were transfected using DMRIE-C reagent (Life Technologies, Gaithersburg, Md.). Transfected cells were then selected in the presence of 500 μg/ml of the Geneticin (G418 Cellgro Catalog No. 30234-CI)
(§2) Individual clones were then characterized using the following cell-based assay for sodium-dependent glucose transport:
(§3) Inhibition of SGLT1 and SGLT2 activity was assessed in CHO K1 cells stably expressing either human SGLT1 or SGLT2, using the SGLT specific glucose analog methyl-glucopyranoside (Sigma Catalog No. M-9376). Cells were plated (45,000 cells/well) in white wall 96-well plates (COSTAR, Cat#3903) for 24 hours in growth medium, then a final concentration of 10 mM Na-Butyrate (ALDRICH Cat#30341-0) was added. The cells were incubated for 24 hours. On the day of the assay, cells were rinsed and treated with test compounds (at concentrations of 0.001 μM to 10 μM) in assay buffer (50 mM HEPES, 20 mM Tris base, 5 mM KCl, 1 mM MgCl2, 1 mM CaCl2 and 137 mM NaCl, pH 7.4) for 10 minutes. Cells were then incubated with ^14C-a-methyl-d-glucopyranoside (AMG, Amersham Catalog No. CFB 76), using 0.07 μCi per well in 500 μM AMG final concentration. The cells were incubated for 2 hours at 37° C. with 5% CO2 and washed two times with ice-cold Phosphate Buffer Solution (Cellgro Catalog No. 21030-CV). The cells were then solubilized by adding 60 μl of MICROSCINT™20 and the Na-dependent ^14C-AMG uptake was quantified by measuring radioactivity. Plates were counted in a TopCount (Packard, Meriden, Conn.)

The next experiment deals with T2, human SGLT1 (Homo sapiens, UniProt P13866).
T2 construct: expressed in transfected cells; host or cells: CHO-K1
T2 sequence (P13866 1-664): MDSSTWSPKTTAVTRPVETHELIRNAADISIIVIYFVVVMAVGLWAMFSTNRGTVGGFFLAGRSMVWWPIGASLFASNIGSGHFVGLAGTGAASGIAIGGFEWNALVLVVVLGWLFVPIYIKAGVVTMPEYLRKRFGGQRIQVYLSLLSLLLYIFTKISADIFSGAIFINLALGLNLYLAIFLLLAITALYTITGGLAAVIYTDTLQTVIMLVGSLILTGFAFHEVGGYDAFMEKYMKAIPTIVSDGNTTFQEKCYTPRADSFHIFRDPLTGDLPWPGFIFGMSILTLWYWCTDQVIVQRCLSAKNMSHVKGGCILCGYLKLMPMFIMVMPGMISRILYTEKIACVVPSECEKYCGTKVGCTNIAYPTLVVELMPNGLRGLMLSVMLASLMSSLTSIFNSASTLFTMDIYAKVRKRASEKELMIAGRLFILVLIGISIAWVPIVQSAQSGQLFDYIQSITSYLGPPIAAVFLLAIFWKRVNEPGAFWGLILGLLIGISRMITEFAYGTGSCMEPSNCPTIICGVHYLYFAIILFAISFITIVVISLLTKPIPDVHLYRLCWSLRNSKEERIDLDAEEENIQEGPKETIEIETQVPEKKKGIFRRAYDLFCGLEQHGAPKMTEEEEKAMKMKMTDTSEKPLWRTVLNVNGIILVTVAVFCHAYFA
Description: SGLT1 assay: Na-dependent 14C-AMG uptake in CHO-K1 cells stably expressing human SGLT1. To be noted: for IC50: 500 μM AMG, 2 hours at 37° C. It is filed as cell-based. As to the method:
as §1, §2, §3

As to `[2H]C1([2H])Cc2ccc(Cc3cc([C@@H]4O[C@H](CO)[C@@H](O)[C@H](O)[C@H]4O)c(OC)cc3CC)cc21` [Compound 69, (2S,3R,4R,5S,6R)-2-(5-[(8,8-Hz)bicyclo[4.2.0]octa-1(6),2,4-trien-3-ylmethyl]-4-ethyl-2-methoxyphenyl)-6-(hydroxymethyl)oxane-3,4,5-triol], the IC50 turned out to be 5 nM against human SGLT2 and 50 nM at human SGLT1. For `CCOc1cc(OC)c(Cc2ccc3c(c2)CC3)cc1[C@@H]1O[C@H](CO)C(F)(F)[C@H](O)[C@H]1O` [Compound 109], the half-inhibitory concentration (IC50) at human SGLT2 worked out at 5 nM; at human SGLT1, 158 nM.

As to `[2H]C([2H])([2H])Oc1cc(OC)c(Cc2ccc3c(c2)CC3)cc1[C@@H]1O[C@H](CO)[C@@H](O)[C@H](O)[C@H]1O` [Compound 112], the IC50 against human SGLT2 amounted to 2 nM; on human SGLT1, 24 nM. Take `COc1cc(Cl)c(Cc2ccc3c(c2)CC3)cc1[C@@H]1O[C@H](CO)[C@@H](F)[C@H](O)[C@H]1O` [Compound 133]: the IC50 was determined as 1 nM at human SGLT2 and 15 nM on human SGLT1. In the case of `[2H]C([2H])(c1ccc2c(c1)CC2)c1cc([C@@H]2O[C@H](CO)[C@@H](O)[C@H](O)[C@H]2O)c(OC)cc1CC` [Compound 60, (2S,3R,4R,5S,6R)-2-(5-(dideuterium(1,2-dihydrocyclobutabenzen-4-yl)methyl)-4-ethyl-2-methoxyphenyl)-6-(hydroxymethyl)-tetrahydro-2H-pyran-3,4,5-triol], the results for the IC50 on human SGLT2 and against human SGLT1 were 3 nM and 83 nM, respectively. Taken in the same sequence, the figures for `Cc1cc(OC2CC2)c([C@@H]2O[C@H](CO)[C@@H](O)[C@H](O)[C@H]2O)cc1Cc1ccc2c(c1)CC2` [Compound 118] were 1 nM and 22 nM. Turning to `[2H]C1([2H])Cc2ccc(Cc3cc([C@@H]4O[C@H](CO)[C@@H](O)[C@H](O)[C@H]4O)c(O)cc3C)cc21` (single isomer, unassigned) [Compound 61], the 50% inhibitory concentration (IC50) on human SGLT2 worked out at 4 nM; on human SGLT1, 7 nM. On human SGLT2, `Cc1cc(OC(F)F)c([C@@H]2O[C@H](CO)[C@@H](O)[C@H](O)[C@H]2O)cc1Cc1ccc2c(c1)CC2` [Compound 36, 2S,3R,4R,5S,6R)-2-(5-([bicyclo[4.2.0]octa-1(6),2,4-trien-3-ylmethyl]-2-(difluoromethoxy)-4-methylphenyl)-6-(hydroxymethyl)oxane-3,4,5-triol] gave an inhibition at 0.03 µM of 84%. Further, at 0.3 µM the inhibition against human SGLT1 was 26%. On to `OC[C@H]1O[C@@H](c2ccc(Cl)c(Cc3ccc4c(c3)CC4)c2)[C@H](O)[C@@H](O)C1(F)F` [Compound 106], for which 0.03 µM produced 26% inhibition against human SGLT2. Besides, the inhibition at 0.3 µM against human SGLT1 worked out at 41%.

Consider `CCc1cc(F)c([C@@H]2O[C@H](CO)[C@@H](O)[C@H](O)[C@H]2O)cc1Cc1ccc2c(c1)CC2` [Compound 32, (2S,3R,4R,5S,6R)-2-(5-((1,2-dihydrocyclobutabenzen-4-yl)methyl)-4-ethyl-2-fluorophenyl)-6-(hydroxymethyl)-tetrahydro-2H-pyran-3,4,5-triol], for which the IC50 came to 3 nM against human SGLT2 and 10 nM against human SGLT1. On human SGLT1, `OC[C@H]1O[C@@H](c2cc(Cc3ccc4c(c3)CC4)c(Cl)cc2O)[C@H](O)[C@@H](O)[C@@H]1O` [Compound 8, (2S,3R,4R,5S,6R)-2-(5-(bicyclo[4.2.0]octa-1(6),2,4-trien-3-ylmethyl)-4-chloro-2-hydroxyphenyl)-6-(hydroxymethyl)oxane-3,4,5-triol] gave an IC50 of 5 nM.

Turning to `OC[C@H]1O[C@@H](c2cc(Cc3ccc4c(c3)CC4)c(C3CC3)cc2O)[C@H](O)[C@@H](O)[C@@H]1O` [Compound 14, (2S,3R,4R,5S,6R)-2-(5-(bicyclo[4.2.0]octa-1(6),2,4-trien-3-ylmethyl)-4-cyclopropyl-2-hydroxyphenyl)-6-(hydroxymethyl)oxane-3,4,5-triol], the half-maximal inhibitory concentration (IC50) against human SGLT2 came out at 6 nM; on human SGLT1, 3 nM. In the case of `[2H]C([2H])(c1ccc2c(c1)CC2)c1cc([C@@H]2O[C@H](CO)[C@@H](O)[C@H](O)[C@H]2O)c(OC)cc1OC` (single isomer, unassigned) [Compound 59], the half-maximal inhibitory concentration (IC50) amounted to 3 nM on human SGLT2 and 140 nM on human SGLT1. In the case of `[2H]C([2H])(c1ccc2c(c1)CC2)c1cc([C@@H]2O[C@H](CO)[C@@H](O)[C@H](O)[C@H]2O)c(OC)cc1C` [Compound 53, (2S,3R,4R,5S,6R)-2-(5-(dideuterium(1,2-dihydrocyclobutabenzen-4-yl)methyl)-2-methoxy-4-methylphenyl)-6-(hydroxymethyl)-tetrahydro-2H-pyran-3,4,6-triol], the values for the IC50 on human SGLT2 and against human SGLT1 were 1 nM and 80 nM, respectively.

For the compound `COc1cc(OCF)c([C@@H]2O[C@H](CO)[C@@H](O)[C@H](O)[C@H]2O)cc1Cc1ccc2c(c1)CC2` [Compound 41, (2S,3R,4R,5S,6R)-2-(5-((1,2-dihydrocyclobutabenzen-4-yl)methyl)-2-(fluoromethoxy)-4-methoxyphenyl)-6-(hydroxymethyl)-tetrahydro-2H-pyran-3,4,5-triol], the IC50 turned out to be 18 nM at human SGLT2 and 106 nM on human SGLT1. At human SGLT1, `[2H]C([2H])([2H])Oc1cc(CC)c(Cc2ccc3c(c2)CC3)cc1[C@@H]1O[C@H](CO)[C@@H](O)[C@H](O)[C@H]1O` [Compound 111] displayed an IC50 of 13 nM. For `Cc1ccc([C@@H]2O[C@H](CO)[C@@H](F)[C@H](O)[C@H]2O)cc1Cc1ccc2c(c1)CC2` [Compound 126], the half-maximal inhibitory concentration (IC50) on human SGLT2 was found to be 4 nM; on human SGLT1, 52 nM.

As to `CCc1ccc([C@@H]2O[C@H](CO)[C@@H](O)[C@H](O)[C@H]2O)cc1Cc1ccc2c(c1)CC2` [Compound 4, (2S,3R,4R,5S,6R)-2-(3-((1,2-dihydrocyclobutabenzen-4-yl)methyl)-4-ethylphenyl)-6-(hydroxymethyl)-tetrahydro-2H-pyran-3,4,5-triol], the values for the IC50 on human SGLT2 and at human SGLT1 were 3 nM and 18 nM, respectively. On to `[2H]C([2H])([2H])Oc1cc(C)c(Cc2ccc3c(c2)CC3)cc1[C@@H]1O[C@H](CO)[C@@H](O)[C@H](O)[C@H]1O` [Compound 110], for which the 50% inhibitory concentration (IC50) against human SGLT1 was 15 nM. In turn, `[2H]C([2H])(c1ccc2c(c1)CC2)c1cc([C@@H]2O[C@H](CO)[C@@H](O)[C@H](O)[C@H]2O)c(O)cc1Cl` [Compound 55, (2S,3R,4R,S,6R)-2-(5-[bicyclo[4.2.0]octa-1(6),2,4-trien-3-yl(dideuterium)methyl]-4-chloro-2-hydroxyphenyl)-6-(hydroxymethyl)oxane-3,4,5-triol] returned a half-inhibitory concentration (IC50) at human SGLT1 of 7 nM. On human SGLT1, `[2H]C([2H])([2H])Oc1cc(C)c(C([2H])([2H])c2ccc3c(c2)CC3)cc1[C@@H]1O[C@H](CO)[C@@H](O)[C@H](O)[C@H]1O` [Compound 119] returned a half-inhibitory concentration (IC50) of 41 nM.
